Assay results from US10526271B2, “Compositions and methods related to half salts of herbicidal carboxylic acids” (Dow AgroSciences LLC, priority 2015, dated 2020).

Tests used:
[1] = Volatility by thermogravometric analysis (TGA) weight loss at elevated temperature; assay type: physicochemical; details: 120° C., linear region of weight loss curve
Description: The volatility of the 2,4-D potassium half salt (as a concentrated aqueous suspension) was compared to that of 2,4-D acid (as technical solid), 2,4-D ethylhexyl ester (EHE, as technical liquid), and 2,4-D dimethylammonium (DMA) and 2,4-D dimethylethanolammonium (DMEA) salts (both as concentrated aqueous solutions) by thermogravometric analysis (TGA) weight loss at elevated temperature. Each of the 2,4-D samples was added in turn (approximately 25-30 mg) to the reservoir cup of a TA Instruments Model 2050 TGA instrument. The temperature was maintained at 120° C. and the weight loss was recorded as a function of time.
For the water-containing samples, rapid weight loss was observed during water removal followed by a linear region (constant rate of loss). Linear curve fitting was applied in this region of the curve to determine rate of 2,4-D loss in μg/min.

[2] = tested on: common lambsquarters (CHEAL); assay: Greenhouse postemergence weed control, common lambsquarters; assay type: in vivo; details: 800 g ae/ha, no adjuvant, 21 DAA
Description: (§1) Plant material was propagated in the Indianapolis greenhouses under warm temperature conditions of 26 to 28° C. and a 16 hour day length and 8 hour dark cycle. Natural light was supplemented with 1000-watt metal halide overhead lamps with an average illumination of 500 μE m−2 s−1 photosynthetic active radiation for 16 consecutive hours each day. Seeds of each species were planted in 10 cm square pots containing a potting soil, Metro-Mix 360®. Metro-mix 360® consists of Canadian sphagnum peat moss, coarse perlite, bark ash, a starter nutrient charge (with gypsum), a slow-release nitrogen fertilizer and dolomitic limestone. Plants were top watered prior to treatment and sub-irrigated after treatment. Plant material was fertilized three times a week with Jack's fertilizer solution (Jack's Professional 15-5-15 4 Ca 2 Mg fertilizer manufactured by JR PETERS INC.; 6656 Grant Way; Allentown, Pa. 18106). Appropriate amounts of herbicides were weighed and diluted with Indianapolis tap water.
(§2) All treatments were applied to selected plant species with a track sprayer (Generation III Research Sprayer manufactured by DeVries Manufacturing in Hollandale, Minn., USA) located in building 306, laboratory E1-483, at the Dow AgroSciences facility in Indianapolis, Ind. The track sprayer was calibrated to deliver 140 L/ha at 40 psi ([…]) pressure utilizing an 8002E even, flat fan nozzle. Track sprayer speed was set at 1.6 mph ([…]). Applications were made to replicates of each species in a randomized complete block design, with 4 replications per treatment.
(§3) All species were evaluated at 15 or 21 days after application (DAA). The treated plants and control plants were evaluated using a rating scale of 0-100%, wherein 0% indicates no injury or control of the vegetation and 100% indicates complete death of the plants.

redroot pigweed (AMARE) = assay: Greenhouse postemergence weed control, redroot pigweed; assay type: in vivo; details: 800 g ae/ha, no adjuvant, 21 DAA
Description: as §1, §2, §3

sicklepod (CASOB) = assay: Greenhouse postemergence weed control, sicklepod; assay type: in vivo; details: 800 g ae/ha, no adjuvant, 21 DAA
Description: as §1, §2, §3

common ragweed (AMBTR) = assay: Greenhouse postemergence weed control, common ragweed; assay type: in vivo; details: 800 g ae/ha, no adjuvant, 21 DAA
Description: as §1, §2, §3

Structure (SMILES)	Rate of Loss [1] [µg/min]	% Control CHEAL [2] [%]	% Control AMARE (redroot pigweed (AMARE)) [%]	% Control CASOB (sicklepod (CASOB)) [%]	% Control AMBTR (common ragweed (AMBTR)) [%]
O=C(O)COc1ccc(Cl)cc1Cl [2,4-D Acid, 2,4-dichlorophenoxyacetic acid]	2.29				
C[N+](C)(C)CCO.O=C([O-])COc1ccc(Cl)cc1Cl [2,4-D Choline]		74	95		
CNC.O=C(O)COc1ccc(Cl)cc1Cl [2,4-D DMA, 2,4-D dimethylammonium]	1.5	73	91	95	100
CN(C)CCO.O=C(O)COc1ccc(Cl)cc1Cl [2,4-D DMEA, 2,4-D dimethylethanolammonium]	0.905				
CCCCC(CC)COC(=O)COc1ccc(Cl)cc1Cl (stereo not drawn) [2,4-D EHE, 2,4-D ethylhexyl ester]	11				
O=C(O)COc1ccc(Cl)cc1Cl.O=C([O-])COc1ccc(Cl)cc1Cl.[K+] [2,4-D K Half Salt, 2,4-D Potassium Half Salt]	0.132	84	91	100	100
N.O=C(O)COc1ccc(Cl)cc1Cl.O=C(O)COc1ccc(Cl)cc1Cl [2,4-D NH4 half-salt]		74	91	100	100
N.O=C(O)COc1ccc(Cl)cc1Cl [2,4-D NH4]		92	95	100	99
O=C(O)COc1ccc(Cl)cc1Cl.O=C([O-])COc1ccc(Cl)cc1Cl.[Na+] [2,4-D Na half-salt, 2,4-D Sodium Half Salt]		85	92	100	100
